One experiment relates to collagenase. In words: Assay of Collagenase Inhibition Activity. The experiment is classed as biochemical. The following applies: at 10 μM of compound; 45 minutes at 37° C. The procedure:
Stromelysin was first activated by trypsin. This was done by preparing a reaction mixture in B-150 (B-150 consists of 150 mM NaCl, 20 mM Tris at pH 7.8 and 0.02% sodium azide) containing a final concentration of 4 μg/mL trypsin, 1.48 μg/mL of stromelysin, and 3.15 mM CaCl2. The reaction was incubated for 30 minutes at 37° C. and then quenched by adding soybean trypsin inhibitor to a final concentration of 43.6 μg/mL. ZnCl2 was added to the reaction mixture for a total concentration of 0.24 μM.
Following preparation of the solution of activated stromelysin, assay solutions were prepared for each inhibitor being tested. A control was also prepared. First, […] of activated stromelysin (about 45 μL from the solution of activated stromelysin) were aliquotted per assay tube. A 2.5 mM solution in 100% dimethyl sulfoxide (DMSO) was prepared for each inhibitor being tested and 1 μL from each inhibitor solution was added to one of the assay tubes. In addition, 1 μL of 100% DMSO was added to the control assay tube. All assay tubes were then pre-incubated for 5 minutes.
5 μL of a previously prepared 50 μM solution of substrate in 15% DMSO were added to each assay tube. The substrate was a methoxycumarin developed by Knight et al. FEBS Lett. 296:263-66 (1992). The tubes were then incubated for 60 minutes, at which time the reaction was stopped with the addition of 750 μL of 0.1M NaAc pH 4.0 buffer.
Substrate hydrolysis was assessed by fluorescence using a slit width of 10:10, excitation at 328 nm and emission at 393 nm. The results of these assays are listed in Table I as percent inhibition at 10 μM of the bile acid provided compound tested or as the IC50.
The assay procedure for collagenase was the same as described in Example 13 for stromelysin except that the trypsin activation was performed for 45 minutes. In addition, the incubation of the assay tubes at 37° C. was only for 45 minutes, and the final enzyme concentration is 6 nm. The results of these assays are provided in Table I as percent inhibition at 10 μM of the compound tested.

For the next experiment, the system named is chondrocytes. Nature of the experiment: Chondrocyte Cell Culture Matrix Breakdown Assay (35S release, rhIL-1α stimulated). It counts as cell-based, calf. Conditions: Bos taurus, Chondrocyte; for inhibition at 50 µM: read-out: percent inhibition, Cell Culture. How it is done: A cell culture assay was used to measure the ability of compounds to slow the degradation of the extracellular matrix by a metalloproteinase. This assay measured the amount ^35 S released from chondrocytes grown in a media with ^35 S labeled sodium sulfate. The cell culture assay was carried out as follows:
Two or three 1 to 3 week old calf joints were obtained from an abattoir. The proximal end of the shank was at about 4-5" long to facilitate immobilization in the holder. The joint was kept cool and transported on ice. The exterior of the intact joints was washed well with a suitable anti-microbial soap, rinsed clean with warm water, rinsed in betadine and then finally rinsed with 70% ethanol. Up to this point all steps were done in a manner to ensure that the joint was kept as clean as possible. All subsequent steps were performed in a sterile field (i.e., in a Edgeguard laminar flow tissue culture hood). The joint was immobilized and the synovial fluid was aspirated with a needle and syringe. The joint was then cut open to expose the articular cartilage using a #21 scalpel. Using locking hemostats, forceps and a #15 scalpel, the cartilage was excised in full thickness pieces. Care was taken not to cut too deep because bleeding would have occurred if the subchondral bone, was penetrated. The cartilage pieces were placed into a 50 mL centrifuge tube containing 25 mL of Delbecco's phosphate buffered saline (D-PBS) supplemented with 1% antibiotic solution (penicillin, streptomycin and fungizone; GIBCO/BRL). The slices from each joint were then placed into separate 50 mL centrifuge tubes. The D-PBS was decanted and replaced with 25 mL of fresh D-PBS supplemented with antibiotics and subsequently agitated gently.
The cartilage pieces were transferred to a fresh 50 mL centrifuge tube and rinsed once more with 25 mL of D-PBS minus antibiotics. An enzymatic digestion solution containing 1 mg/mL of hyaluronidase in serum-free 1:1 DMEM/Ham's F-12 (DMEM/F12) was prepared. This solution was filter sterilized with […] Milex--GV filter and kept on ice until ready to use. The cartilage pieces were digested with approximately 5 mL of hyaluronidase solution per joint for 2×15 minutes at 37° C. in the 50 mL centrifuge tube with gentle agitation at the 15 minute mark. This procedure removed residual hyaluronic acid from the surface of the chips. The enzymatic digestion solution was then aspirated and the cartilage pieces were rinsed with 25 mL of D-PBS.
A second enzymatic digestion solution containing 2.5 mg trypsin and 2 mg collagenase P per mL serum-free DMEM/F12 was prepared. This solution was also filter sterilized with a […] Millex--GV filter and kept on ice until ready to use. The cartilage pieces were digested with approximately 5 mL of trypsin: collagenase solution per joint for 2×15 minutes at 37° C. in the 50 mL centrifuge tube with gentle agitation at the 15 minute mark. This procedure removed the synovial fibroblasts and any adherent connective tissue from the surface of the chips. The enzymatic digestion solution was then carefully removed and saved and the cartilage pieces were rinsed with 25 mL of D-PBS.
A third enzymatic solution containing 2 mgs of collagenase P (BMB) per mL serum-free DMEM/F12 was prepared. This solution was filter sterilized with a […] Millex--GV filter and kept on ice until ready to use. The pre-digested cartilage pieces were finally digested with approximately 20 mL of enzymatic digestion solution per joint for 5-6 hours at 37° C. in a Bellco stirring digestion flask, at which point the cartilage was fully digested away.
The enzymes in the synovial fibroblast and chondrocyte digest were neutralized by addition of an equal volume of DMEM/F12 supplemented with 5% fetal bovine serum. Fibroblasts were plated in DMEM at a cellular density of 6.6×10^3 cells per cm^2. […]

Setting [1] is: at 50 μM, rhIL-1α 1 ng/ml, 22-24 hours.

Where two headings read alike, the source gives them in different places.

With `C[C@H](CCC(=O)O)[C@H]1CC[C@H]2[C@@H]3CC[C@@H]4C[C@H](O)CC[C@]4(C)[C@H]3CC[C@]12C` [Compound 1, Lithocholic acid, reference compound], the “percent inhibition of collagenase” value with collagenase was 27%. Further, the inhibition at 50 µM in the experiment on chondrocytes (setting [1]) came out at 95%.
Regarding `C[C@H](CCC(=O)NCCC[N+](C)(C)CCCS(=O)(=O)[O-])[C@H]1CC[C@H]2[C@@H]3[C@H](O)C[C@@H]4C[C@H](O)CC[C@]4(C)[C@H]3C[C@H](O)[C@]12C` [Compound 8, 3-[(3-cholamidopropyl)dimethylammonio)-1-propanesulfonate, reference compound], in the experiment with collagenase, the “percent inhibition of collagenase” value turned out to be 22%. In addition, the inhibition at 50 µM with chondrocytes was 2%.
`CC(C)C[C@H](NC(=O)CC[C@@H](C)[C@H]1CC[C@H]2[C@@H]3CC[C@@H]4C[C@H](O)CC[C@]4(C)[C@H]3CC[C@]12C)C(=O)NO` [Compound 9, Lithocholyl-(L)-Leucine Hydroxamic Acid]: in the experiment with collagenase, the “percent inhibition of collagenase” value was 27%. Besides, in the experiment with chondrocytes (setting [1]), the inhibition at 50 µM amounted to 43%.
Consider `CC(C)C[C@H](NC(=O)CC[C@@H](C)[C@H]1CC[C@H]2[C@@H]3[C@H](O)C[C@@H]4C[C@H](O)CC[C@]4(C)[C@H]3CC[C@]12C)C(=O)NO` [Compound 10, Chenodeoxycholyl-(L)-Leucine Hydroxamic Acid], for which the “percent inhibition of collagenase” value with collagenase came to 8%. The same molecule registered an IC50 in the experiment with chondrocytes (rhIL-1α 1 ng/ml, 22-24 hours) of 80 µM.
For `C[C@H](CCC(=O)NOCc1ccccc1)[C@H]1CC[C@H]2[C@@H]3[C@H](O)C[C@@H]4C[C@H](O)CC[C@]4(C)[C@H]3CC[C@]12C` [Compound 12, Chenodeoxycholyl-O-Benzylhyroxamate], the “percent inhibition of collagenase” value in the experiment on collagenase stood at 21%. The inhibition at 50 µM with chondrocytes (setting [1]) is 64%.
`C[C@H](CCC(=O)NO)[C@H]1CC[C@H]2[C@@H]3CC[C@@H]4C[C@H](O)CC[C@]4(C)[C@H]3CC[C@]12C` [Compound 13, Lithocholylhydroxamic Acid]: the “percent inhibition of collagenase” value in the experiment on collagenase is 35%. In the experiment on chondrocytes (rhIL-1α 1 ng/ml, 22-24 hours), this molecule came in with an IC50 of 20 µM.
Regarding `C[C@H](CCC(=O)N[C@@H](Cc1ccccc1)C(=O)NO)[C@H]1CC[C@H]2[C@@H]3CC[C@@H]4C[C@H](O)CC[C@]4(C)[C@H]3CC[C@]12C` [Compound 15, Lithocholyl-(L)-Phenylalanine Hydroxamic Acid], in the experiment on collagenase, the “percent inhibition of collagenase” value was determined as 58%. Also, the inhibition at 50 µM in the experiment on chondrocytes (setting [1]) was determined as 38%.
For `C[C@H](CCC(=O)N[C@@H](Cc1ccccc1)C(=O)NO)[C@H]1CC[C@H]2[C@@H]3[C@H](O)C[C@@H]4C[C@H](O)CC[C@]4(C)[C@H]3CC[C@]12C` [Compound 16, Chenodeoxycholyl-(L)-Phenylalanine Hydroxamic Acid], in that order: 38% and 85%.
The like results for `CCOC(=O)[C@H](CS)NC(=O)[C@H](Cc1ccccc1)NC(=O)CC[C@@H](C)[C@H]1CC[C@H]2[C@@H]3CC[C@@H]4C[C@H](O)CC[C@]4(C)[C@H]3CC[C@]12C` [Compound 19, Lithocholyl-(L)-Phenylalanyl-(L)-Cysteine Ethyl Ester] were, in that order, 33% and 4%.
Regarding `C[C@H](CCC(=O)N[C@@H](Cc1ccccc1)C(=O)NC1CCSC1=O)[C@H]1CC[C@H]2[C@@H]3CC[C@@H]4C[C@H](O)CC[C@]4(C)[C@H]3CC[C@]12C` (some centres unmarked) [Compound 20, Lithocholyl-Phenylalanylhomocysteine Thiolactone], the “percent inhibition of collagenase” value in the experiment with collagenase was found to be 57%. Also, the inhibition at 50 µM in the experiment with chondrocytes (setting [1]) came to 16%.

As a reminder, the inhibition is the share of the control response that was lost under treatment. In general, IC50 refers to the concentration needed to halve the response being measured. Low values mean greater potency, high ones weaker potency.
